The assay concerns the target T1, human GLP-1R receptor (Homo sapiens, UniProt P43220).
T1 construct: expressed in transfected cells
In words: GLP-1R low expression cell assay (cAMP TR-FRET, CHO-K1_hGLP-1Rlow_clone10 cells). The format is cell-based. The note with it: for EC50: cAMP TR-FRET, 30 min at 25° C.; for Emax: maximum activation relative to control GLP-1 peptide agonist. The procedure, abridged: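 CHO-K1 cells stably expressing low surface human GLP-1R (clone10), 1,000 cells/well, exposed to 10-point 3-fold compound dilutions for 30 min at 25 °C. cAMP measured by TR-FRET (Eu-cAMP tracer/ULight-anti-cAMP, 15 min). EC50 from Hill fit of duplicate percent activation relative to a parallel GLP-1 control agonist.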
On the technique in general: TR-FRET usually uses a lanthanide donor and a delayed reading to cut background.

A word on the EC50: it is the concentration at which the effect is half-maximal. A lower EC50 goes with an effect from little substance. What is called Emax is the size of the effect at its maximum, as opposed to the concentration needed.

T1 sequence (P43220 24-463): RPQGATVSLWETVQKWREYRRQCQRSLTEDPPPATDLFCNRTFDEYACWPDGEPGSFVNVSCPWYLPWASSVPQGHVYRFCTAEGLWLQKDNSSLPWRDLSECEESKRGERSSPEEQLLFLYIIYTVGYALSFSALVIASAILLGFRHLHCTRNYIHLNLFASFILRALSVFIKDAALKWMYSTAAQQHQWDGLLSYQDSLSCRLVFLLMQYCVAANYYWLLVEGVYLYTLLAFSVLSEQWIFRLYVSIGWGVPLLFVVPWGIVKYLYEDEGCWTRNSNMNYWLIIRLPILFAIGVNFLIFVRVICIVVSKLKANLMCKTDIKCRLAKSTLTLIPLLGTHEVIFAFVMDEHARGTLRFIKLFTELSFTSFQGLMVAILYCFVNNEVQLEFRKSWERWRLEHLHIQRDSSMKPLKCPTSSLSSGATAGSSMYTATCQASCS

As to `Cn1c(CN2CCC(Oc3cccc(Cc4ccc(C#N)cc4F)n3)CC2)nc2c(OC(F)F)cc(C(=O)O)cc21` [Compound 157, 2-((4-((6-(4-Cyano-2-fluorobenzyl)pyridin-2-yl)oxy)piperidin-1-yl)methyl)-4-(difluoromethoxy)-1-methyl-1H-benzo[d]imidazole-6-carboxylic acid], the EC50 was 100 to 1000 nM and the Emax was > 85%.

For the molecule `COc1cc(C(=O)O)cc2c1nc([C@@H](C)N1CCC(c3cccc(OCc4ccc(C#N)cc4F)n3)CC1)n2C` [Compound 103, (R)-2-(1-(4-(6-((4-Cyano-2-fluorobenzyl)oxy)pyridin-2-yl)piperidin-1-yl)ethyl)-4-methoxy-1-methyl-1H-benzo[d]imidazole-6-carboxylic acid], the EC50 was > 1000 nM and the Emax was in the range of 50 to 85%.

In the case of `CS(=O)(=O)Nc1cc(C(=O)O)cc2c1nc(CN1CCC(c3cccc(OCc4ccc(C#N)cc4F)n3)CC1)n2C[C@@H]1CCO1` [Compound 129, (S)-2-((4-(6-((4-cyano-2-fluorobenzyl)oxy)pyridin-2-yl)piperidin-1-yl)methyl)-4-(methylsulfonamido)-1-(oxetan-2-ylmethyl)-1H-benzo[d]imidazole-6-carboxylic acid], the EC50 was in the range of 10 to 100 nM and the Emax was > 85%.

As for `CCOc1cc(C(=O)O)cc2c1nc(Cc1ccc(-c3cccc(OCc4ccc(C#N)cc4F)n3)cc1F)n2C` [Compound 293, 2-(4-(6-((4-Cyano-2-fluorobenzyl)oxy)pyridin-2-yl)-2-fluorobenzyl)-4-ethoxy-1-methyl-1H-benzo[d]imidazole-6-carboxylic acid], the EC50 is < 10 nM and the Emax is > 85%.

For the molecule `N#Cc1ccc(COc2cccc(C3CCN(Cc4nc5c(OC(F)F)cc(C(=O)O)cc5n4C[C@@H]4CCS4(=O)=O)CC3)n2)c(F)c1` [Compound 110, (S)-2-((4-(6-((4-Cyano-2-fluorobenzyl)oxy)pyridin-2-yl)piperidin-1-yl)methyl)-4-(difluoromethoxy)-1-((1,1-dioxidothietan-2-yl)methyl)-1H-benzo[d]imidazole-6-carboxylic acid], the half-maximal effective concentration (EC50) was < 10 nM and the Emax is > 85%.

As for `Cn1c(CN2CCC(c3cc(OCc4ccc(C#N)cc4F)ccc3F)CC2)nc2c(OC(F)F)cc(C(=O)O)cc21` [Compound 181, 2-((4-(5-((4-Cyano-2-fluorobenzyl)oxy)-2-fluorophenyl)piperidin-1-yl)methyl)-4-(difluoromethoxy)-1-methyl-1H-benzo[d]imidazole-6-carboxylic acid], the EC50 is > 1000 nM and the maximum response (Emax) lay in the range of 50 to 85%.

`Cn1c(CN2CCC(c3cccc(OCc4ccc(Cl)cc4F)n3)CC2)nc2c(OC(F)F)nc(C(=O)O)cc21` [Compound 253, 2-((4-(6-((4-Chloro-2-fluorobenzyl)oxy)pyridin-2-yl)piperidin-1-yl)methyl)-4-(difluoromethoxy)-1-methyl-1H-imidazo[4,5-c]pyridine-6-carboxylic acid] yielded an EC50 of 10 to 100 nM.

Consider `Cn1c(CN2CCC(c3cccc(COc4ccc(Cl)cc4F)n3)C2)nc2c(OC(F)F)cc(C(=O)O)cc21` (stereo not drawn) [Compound 362, 2-((3-(6-((4-Chloro-2-fluorophenoxy)methyl)pyridin-2-yl)pyrrolidin-1-yl)methyl)-4-(difluoromethoxy)-1-methyl-1H-benzo[d]imidazole-6-carboxylic acid], for which the EC50 was > 1000 nM and the Emax lay within 50 to 85%.

Regarding `Cn1c(CN2CCC(c3cncc(OCc4ccc(Cl)cc4F)n3)CC2)nc2c(OC(F)F)cc(C(=O)O)cc21` [Compound 374, 2-((4-(6-((4-Chloro-2-fluorobenzyl)oxy)pyrazin-2-yl)piperidin-1-yl)methyl)-4-(difluoromethoxy)-1-methyl-1H-benzo[d]imidazole-6-carboxylic acid], the 50% effective concentration (EC50) fell in the range of 100 to 1000 nM and the Emax is > 85%.

`Cn1c(CN2CC=C(c3cccc(OCc4ccc(Cl)cc4F)n3)CC2)nc2c(OC(F)F)cc(C(=O)O)cc21` [Compound 155, 2-((6-((4-Chloro-2-fluorobenzyl)oxy)-3′,6′-dihydro-[2,4′-bipyridin]-1′(2′H)-yl)methyl)-4-(difluoromethoxy)-1-methyl-1H-benzo[d]imidazole-6-carboxylic acid]: the EC50 is 10 to 100 nM and the Emax is > 85%.

Consider `CO[C@H]1C[C@H](Oc2cc(C(=O)O)cc3c2nc(CN2CCC(c4cccc(OCc5ccc(Cl)cc5F)n4)CC2)n3C)C1` [Compound 325, 2-((4-(6-((4-Chloro-2-fluorobenzyl)oxy)pyridin-2-yl)piperidin-1-yl)methyl)-4-((1r,3r)-3-methoxycyclobutoxy)-1-methyl-1H-benzo[d]imidazole-6-carboxylic acid], for which the EC50 lay within 100 to 1000 nM and the Emax was > 85%.

Regarding `COc1cc(C(=O)O)cc2c1nc(N(C)[C@H]1CC[C@H](c3cccc(OCc4ccc(C#N)cc4F)n3)CC1)n2C` [Compound 178, 2-(((1r,4r)-4-(6-((4-Cyano-2-fluorobenzyl)oxy)pyridin-2-yl)cyclohexyl)(methyl)amino)-4-methoxy-1-methyl-1H-benzo[d]imidazole-6-carboxylic acid], the EC50 is < 10 nM and the Emax was > 85%.

For the molecule `COc1ccc(C2CCN(Cc3nc4c(OC(F)F)cc(C(=O)O)cc4n3C)CC2)cc1OCc1ccc(Cl)cc1F` [Compound 230, 2-((4-(3-((4-Chloro-2-fluorobenzyl)oxy)-4-methoxyphenyl)piperidin-1-yl)methyl)-4-(difluoromethoxy)-1-methyl-1H-benzo[d]imidazole-6-carboxylic acid], the EC50 was > 1000 nM and the Emax was < 25%.

With `Cn1c(CN2CCC(c3cccc(OCc4ccc(C5CCCO5)cc4F)n3)CC2)nc2c(OC(F)F)cc(C(=O)O)cc21` (stereo not drawn) [Compound 177, 4-(Difluoromethoxy)-2-((4-(6-((2-fluoro-4-(tetrahydrofuran-2-yl)benzyl)oxy)pyridin-2-yl)piperidin-1-yl)methyl)-1-methyl-1H-benzo[d]imidazole-6-carboxylic acid], the EC50 was > 1000 nM and the Emax was in the range of 50 to 85%.

Consider `Cc1ccc(COc2c(F)cccc2C2CCN(Cc3nc4c(OC(F)F)cc(C(=O)O)cc4n3C)CC2)c(F)c1` [Compound 139, 4-(Difluoromethoxy)-2-((4-(3-fluoro-2-((2-fluoro-4-methylbenzyl)oxy)phenyl)piperidin-1-yl)methyl)-1-methyl-1H-benzo[d]imidazole-6-carboxylic acid], for which the EC50 is 10 to 100 nM and the Emax was > 85%.

In the case of `CCn1c(CN2CCC(c3cccc4c3O[C@@](C)(c3ccc(Cl)cn3)O4)CC2)nc2c(OC(C)C)cc(C(=O)O)cc21` [Compound 88, (S)-2-((4-(2-(5-Chloropyridin-2-yl)-2-methylbenzo[d][1,3]dioxol-4-yl)piperidin-1-yl)methyl)-1-ethyl-4-isopropoxy-1H-benzo[d]imidazole-6-carboxylic acid], the EC50 is 10 to 100 nM and the Emax is > 85%.

Regarding `COc1cc(C(=O)O)cc2c1nc(CN1CCC(c3cccc4c3O[C@@H](c3ccc(Cl)cc3F)CO4)CC1)n2C` [Compound 268, (S)-2-((4-(3-(4-Chloro-2-fluorophenyl)-2,3-dihydrobenzo[b][1,4]dioxin-5-yl)piperidin-1-yl)methyl)-4-methoxy-1-methyl-1H-benzo[d]imidazole-6-carboxylic acid], the concentration giving a half-maximal response (EC50) is < 10 nM and the Emax is > 85%.

The record behind these values is patent publication US20240368120A1 (Terns Pharmaceuticals, Inc., priority 2023, published 2024).
